What was measured:
NLRP3 inflammasome [1] = target: T1, NLRP3 inflammasome (Homo sapiens, UniProt Q96P20); test: NLRP3 inflammasome activation assay in PBMCs, IL-1β release (ELISA / HTRF); assay type: cell-based; design: were freshly isolated from human peripheral blood from healthy donors; StemCells Technologies; host or cells: primary human PBMCs, LPS-primed, nigericin-stimulated; details: LPS primed
Description: Some of the following assays were used to determine the inhibitory activity of the compounds on the NLRP3 inflammasome using a common inflammasome activation stimuli—nigericin.
Human peripheral blood mononuclear cells (PBMCs), consisting of lymphocytes (T, B and NK cells), monocytes and dendritic cells, were freshly isolated from human peripheral blood from healthy donors. Cells were obtained through an IRB approved donor program by iXCells Biotechnologies where all the donors were tested for bacterial and viral infections. Cells were purified from peripheral blood using ficoll gradient centrifugation.
Fresh or cryopreserved PMBCs were seeded in V-bottom 96-well plate at 0.5-1×10^5 cells per well and incubated overnight at 37° C. with 5% CO2 in RPMI 1640 medium with GlutaMAX supplement, 4.5 g/L D-glucose, 10% Fetal Bovine Serum (FBS), […] Sodium Pyruvate, 1% Penicillin/Streptomycin, 10 mM HEPES and 0.05 mM of β-mercaptoethanol. Freshly isolated or cryopreserved KCs cells were seeded in flat-bottom 96-well plates at 0.6-1.5×10^5 cells/well and incubated overnight at 37° C. 5% CO2 in RPMI 1640 Medium with GlutaMAX supplement, FBS, 1% Penicillin/Streptomycin and 10 mM HEPES. The following day, the cells were primed with 100 ng/mL of lipopolysaccharides (LPS; Sigma Aldrich) in FBS-free RPMI 1640 for 3 h. After the priming step, the media was removed and PBMCs were pre-incubated with serial concentrations of test compounds (0.00017-10 uM) or vehicle (DMSO) for 30 min in FBS-free media prior to addition of the NLRP3 activator. Cells were then stimulated with 10 uM Nigericin (Sigma Aldrich; InvivoGen) for 1.5 h. Plates were centrifuged at 1,500 rpm for 3 minutes to pellet cells and supernatant was transferred into new plates for subsequent experiments.
For ELISA assays cells were seeded into 96-well plates. Post study, supernatants were removed and the levels of mature IL-1β, IL18 and TNFα (Quantikine ELISA, R&D systems) were measured in cell conditioned media by ELISA according to manufacturer's instructions.
Human frozen PBMCs were purchased from StemCells Technologies. Cells were rapidly thawed in 37° C. water bath and resuspended in fresh assay media consisting of RPMI 1640 Medium containing 1% sodium pyruvate, 10 mM HEPES, 2.5 g/L glucose and 55 μM 2-Mercaptoethanol. Cell density was adjusted to 8.1×10^5 cells/mL. Cells were primed by adding lipopolysaccharide (Invivogen Ultrapure lipopolysaccharide from E. coli, tlrl-3pelps) at a final concentration of 100 ng/mL in cell suspension. 37 μL of cell suspension with LPS was seeded per well of a 384 well plate and incubated for 3 hours at 37° C. and 5% CO2. After priming, PBMCs were preincubated with serially diluted test compounds with starting concentration of 40 μM followed by 2-fold dilution for a 20-point curve or vehicle (DMSO) for 30 min in assay media at 37° C. and 5% CO2. Cells were then stimulated with 10 μM nigericin (Invivogen, tlrl-nig-5) for 90 min at 37° C. and 5% CO2 to activate NLRP3 dependent inflammasome pathway and IL-1β release in cell culture supernatant. Cells were centrifuged at 1200 RPM for 1 min and 40 μL of supernatant was transferred into fresh plates and stored at −80° C. until IL-1β analysis.
16 μL of supernatant was added to white 384 well HTRF plates, followed by addition of 4 μL of HTRF cocktail in each well. Plates were quickly centrifuged, sealed and incubated overnight at room temperature. Next day, HTRF signal was read on a Pherastar and ratio of 665/620 was calculated based on manufacturer's protocol to obtain concentration of IL-1β in cell culture supernatant.

NLRP3 inflammasome [2] = target: T1, NLRP3 inflammasome; test: THP-1 ASC-GFP speck assay; assay type: cell-based; design: host or cells: THP-1 ASC-GFP cells, PMA-differentiated, LPS-primed, nigericin-stimulated; details: THP-1 ASC-GFP cells, PMA differentiated, LPS primed, 10 μM nigericin; read-out: THP1 ASC Speck IC50
Description: THP-1 ASC-GFP cell line was purchased from Invivogen, San Diego, for inflammasome activation assay. THP-1 ASC-GFP cells stably express a 37.6 kDa ASC::GFP fusion protein that enables monitoring of spec formation by microscopy after activation of NLRP3 dependent inflammasome pathway. Cells were maintained at a density of 600,000 cells/mL in growth media consisting of RPMI 1640, 2 mM L-glutamine, 25 mM HEPES and 10% heat inactivated fetal bovine serum at 37° C. and 5% CO2. Cells were passaged every 3-4 days and used for assays for up to 20 passages.
THP-1 ASC-GFP cells were collected by centrifuging cells at 800 RPM for 5 minutes. Cell culture supernatant was removed and cells were re-suspended in fresh media at density of 1×10^6 cells/mL in assay media consisting of RPMI 1640, 2 mM L-glutamine, 25 mM HEPES and 10% heat inactivated fetal bovine serum. Phorbol 12-myristate 13-acetate (PMA) (Invivogen, tlrl-pma) was added to the cell suspension at a final concentration of 500 ng/ml and mixed thoroughly. 40,000 cells were added per well of a 384 well plate and differentiated into macrophages overnight at 37° C. and 5% CO2. Cells were primed with 1 μg/mL of lipopolysaccharide (Invivogen Ultrapure lipopolysaccharide from E. coli, tlrl-3pelps) in assay media for 3 hours at 37° C. and 5% CO2. After priming, media was removed and THP-1 ASC-GFP cells were preincubated with serially diluted test compounds with starting concentration of 40 μM followed by 2-fold dilution for a 20-point curve or vehicle (DMSO) for 30 min in assay media at 37° C. and 5% CO2. Cells were then stimulated with 10 μM nigericin (Invivogen, tlrl-nig-5) for 90 min at 37° C. and 5% CO2 to activate NLRP3 dependent inflammasome pathway and spec formation. After stimulation, cells were fixed with 4.8% paraformaldehyde (Electron Microscopy Sciences #15710-S) and incubated at room temperature for 15 min. Cells were then washed 3-times with 100 μL of phosphate buffered saline and permeabilized in the presence of premeablization/block buffer for 20 min at room temperature. Cells were then washed 3-times with 100 μL phosphate buffered saline and incubated for 1 hr at room temperature in the presence of hoechst. After staining with Hoechst, cells were washed 3-times with 100 μL phosphate buffered saline and imaged for ASC spec formation.
THP-1 ASC-GFP cells were imaged in 488 and Hoechst channels. Hoechst channel was used for cell count and 488 channel was used to identify number of GFP ASC specks in imaged fields. Percentage of cells with a spec was calculated by dividing the number of GFP positive spots by total number of cells.

[3] = 10 μM nigericin, read-out: PBMC IL-1β IC50
[4] = 10 uM nigericin, read-out: PBMC IL-1 β IC50

T1 sequence (Q96P20 whole entry): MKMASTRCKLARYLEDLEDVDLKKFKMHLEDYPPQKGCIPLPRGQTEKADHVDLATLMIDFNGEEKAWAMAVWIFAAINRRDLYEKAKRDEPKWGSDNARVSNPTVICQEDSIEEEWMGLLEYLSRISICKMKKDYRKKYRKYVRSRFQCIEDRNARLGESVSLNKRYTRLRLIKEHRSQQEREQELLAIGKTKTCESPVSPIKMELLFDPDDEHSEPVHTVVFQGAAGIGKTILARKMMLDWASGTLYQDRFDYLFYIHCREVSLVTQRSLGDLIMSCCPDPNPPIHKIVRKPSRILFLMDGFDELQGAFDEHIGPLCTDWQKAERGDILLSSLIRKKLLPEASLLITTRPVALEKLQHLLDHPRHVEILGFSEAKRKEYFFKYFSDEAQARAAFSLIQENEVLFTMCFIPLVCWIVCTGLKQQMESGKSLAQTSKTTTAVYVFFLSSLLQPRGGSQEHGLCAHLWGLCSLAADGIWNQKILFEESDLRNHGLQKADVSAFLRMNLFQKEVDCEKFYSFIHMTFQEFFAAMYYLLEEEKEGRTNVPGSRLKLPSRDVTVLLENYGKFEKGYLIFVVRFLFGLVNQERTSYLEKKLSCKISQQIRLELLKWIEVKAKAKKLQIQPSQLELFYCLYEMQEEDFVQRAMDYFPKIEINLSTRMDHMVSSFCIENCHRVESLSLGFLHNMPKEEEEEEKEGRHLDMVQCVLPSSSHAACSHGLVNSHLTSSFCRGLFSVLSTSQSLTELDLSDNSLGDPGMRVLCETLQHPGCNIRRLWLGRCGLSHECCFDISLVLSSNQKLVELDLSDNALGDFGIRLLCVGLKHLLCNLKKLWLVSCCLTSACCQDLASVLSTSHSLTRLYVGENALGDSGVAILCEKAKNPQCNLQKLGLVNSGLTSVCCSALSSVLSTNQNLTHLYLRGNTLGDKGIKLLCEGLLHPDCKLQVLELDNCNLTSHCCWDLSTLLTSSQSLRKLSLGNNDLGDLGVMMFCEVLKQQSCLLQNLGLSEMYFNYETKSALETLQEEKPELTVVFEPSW

SMILES | IC50 (NLRP3 inflammasome [1]; [3]) [nM] | IC50 (NLRP3 inflammasome [2]) [nM] | IC50 (NLRP3 inflammasome [1]; [4]) [nM]
COCCNC1COc2c(S(N)(=O)=NC(=O)Nc3c4c(cc5c3CCC5)CCC4)cnn2C1 (single isomer, unassigned) [Example 55] | > 10000 | 7200 | 
CC1CCOc2c(S(N)(=O)=NC(=O)Nc3c4c(cc5c3CCC5)CCC4)cnn2C1 (single isomer, unassigned) [Example 66] | > 20000 | > 20000 | 
CC(=O)NS(=O)(=NC(=O)Nc1c2c(c(F)c3c1CCC3)CCC2)c1cnn2c1OCCC2 (single isomer, unassigned) [Example 95] | 2230 |  | 
COC1CN(C2COc3c(S(N)(=O)=NC(=O)Nc4c5c(c(F)c6c4CCC6)CCC5)cnn3C2)C1 (single isomer, unassigned) [Example 42] | 5 | 18 | 
CNCCOC1COc2c(S(N)(=O)=NC(=O)Nc3c4c(cc5c3CCC5)CCC4)cnn2C1 (single isomer, unassigned) [Example 56] | > 10000 | > 20000 | 
CC1CCOc2c(S(N)(=O)=NC(=O)Nc3c4c(cc5c3CCC5)CCC4)cnn2C1 (single isomer, unassigned) [Example 64] | > 20000 | > 20000 | 
CNC1COc2c(S(N)(=O)=NC(=O)Nc3c(C(C)C)cc(OC)nc3C(C)C)cnn2C1 (single isomer, unassigned) [Example 51] | > 10000 | 17000 | 
COCCNC1COc2c(S(N)(=O)=NC(=O)Nc3c4c(cc5c3CCC5)CCC4)cnn2C1 (single isomer, unassigned) [Example 54] | 330 | 360 | 
CN(C)[C@@H]1COc2c([S@](N)(=O)=NC(=O)Nc3c4c(c(F)c5c3CCC5)CCC4)cnn2C1 (single isomer, unassigned) [Example 44] | 86 | 450 | 
NS(=O)(=NC(=O)Nc1c2c(c(F)c3c1CCC3)CCC2)c1cnn2c1OCC(NCCF)C2 (single isomer, unassigned) [Example 46] | 7 | 81 | 
NC1COc2c(S(N)(=O)=NC(=O)Nc3c4c(cc5c3CCC5)CCC4)cnn2C1 (single isomer, unassigned) [Example 58] | > 10000 | 5500 | 
CNCCO[C@@H]1COc2c(S(N)(=O)=NC(=O)Nc3c4c(cc5c3CCC5)CCC4)cnn2C1 (single isomer, unassigned) [Example 57] | 1670 |  | 
NS(=O)(=NC(=O)Nc1c2c(c(F)c3c1CCC3)CCC2)c1cnn2c1OC[C@@H](NCCF)C2 (single isomer, unassigned) [Example 47] | 330 | 1700 | 
N[C@@H]1COc2c([S@@](N)(=O)=NC(=O)Nc3c4c(cc5c3CCC5)CCC4)cnn2C1 [Example 59, (S,6S)-6-amino-N′-((1,2,3,5,6,7-hexahydro-s-indacen-4-yl)carbamoyl)-6,7-dihydro-5H-pyrazolo[5,1-b][1,3]oxazine-3-sulfonimidamide] | 95 | 260 | 
CC1CCOc2c(S(N)(=O)=NC(=O)Nc3c4c(cc5c3CCC5)CCC4)cnn2C1 (single isomer, unassigned) [Example 67] | 220 | 1400 | 
CN[C@@H]1COc2c(S(=N)(=O)NC(=O)Nc3c4c(cc5c3CCC5)CCC4)cnn2C1 (some centres unmarked) [drawing 673] |  |  | 100 to 1000
COc1cc(C(C)C)c(NC(=O)N=S(N)(=O)c2cnn3c2OCC(OC)C3)c(C(C)C)n1 (single isomer, unassigned) [Example 52] | 15100 | > 20000 | 
CNC1COc2c(S(N)(=O)=NC(=O)Nc3c(C(C)C)cc(OC)nc3C(C)C)cnn2C1 (single isomer, unassigned) [Example 50] | 200 | 430 | 
COC1CN(C2COc3c(S(N)(=O)=NC(=O)Nc4c5c(c(F)c6c4CCC6)CCC5)cnn3C2)C1 (single isomer, unassigned) [Example 43] | 430 | 1900 | 
COc1cc(C(C)C)c(NC(=O)N=S(N)(=O)c2cnn3c2OCC(N2CC(OC)C2)C3)c(C(C)C)n1 (single isomer, unassigned) [Example 48] | > 10000 |  | 
NS(=O)(=NC(=O)Nc1c2c(cc3c1CCC3)CCC2)c1cnn2c1CCCC2 (racemic) [Example 60, N′-((1,2,3,5,6,7-hexahydro-s-indacen-4-yl)carbamoyl)-4,5,6,7-tetrahydropyrazolo[1,5-a]pyridine-3-sulfonimidamide] | 3640 |  | 
CN(C)[C@@H]1COc2c([S@@](N)(=O)=NC(=O)Nc3c4c(c(F)c5c3CCC5)CCC4)cnn2C1 (single isomer, unassigned) [Example 45] | 0.7 | 11 | 
Cn1ccc(S(=O)(=NC(=O)Nc2c3c(cc4c2CCC4)CCC3)NCc2ccccc2)n1 (centres unmarked) [drawing 659] |  |  | > 10000
COc1cc(C(C)C)c(NC(=O)N=S(N)(=O)c2cnn3c2OC[C@@H](N2CC(OC)C2)C3)c(C(C)C)n1 (single isomer, unassigned) [Example 49] | 490 | 400 | 
N#CNS(=O)(=NC(=O)Nc1c2c(cc3c1CCC3)CCC2)c1cnn2c1OCCC2 (single isomer, unassigned) [Example 68] | 380 | 330 | 
COc1cc(C(C)C)c(NC(=O)N=S(N)(=O)c2cnn3c2OCC(OC)C3)c(C(C)C)n1 (single isomer, unassigned) [Example 53] | 470 | 1200 | 
Cn1ccc(S(=O)(=NC(=O)Nc2c3c(cc4c2CCC4)CCC3)NCc2ccccc2)n1 (centres unmarked) [Example 11, N′-benzyl-N-((1,2,3,5,6,7-hexahydro-s-indacen-4-yl)carbamoyl)-1-methyl-1H-pyrazole-3-sulfonimidamide] | > 10000 |  | 

From patent publication US12234245B2, “Sulfonimidamide compounds as inhibitors of interleukin-1 activity” (Genentech, Inc., priority 2018, dated 2025)
